Laboratory results published in patent US10077289B2, “Cyclosporins modified on the MeBmt sidechain by heterocyclic rings” (priority 2015, dated 2018).
≈ marks a conversion by molar mass, not a printed value. Read-outs that look alike come from different tables or passages of the source.

Legend:
[1] = molecular target: calcineurin/cyclophilin A (Homo sapiens (Human), UniProt P62937+P63098+Q08209); assay: Calcineurin Phosphatase (CaN) Assay (+CypA); assay type: biochemical; conditions: in the presence of Cyp A, 1:1 complex with inhibitor; read-out: Calcineurin Phosphatase (CaN) Assay (+CypA) IC50
[2] = Water Solubility Assay (measured in pH 7.8 buffer); assay type: physicochemical; conditions: 25 °C, pH 7.8, aqueous buffer, kinetic from dmso stock
[3] = molecular target: Human recombinant cyclophilin A (Cyp A) (Homo sapiens (Human), UniProt P62937); assay: Protease-free PPIase assay
[4] = read-out: Protease-free PPIase Assay Ki, human recombinant Cyp A, 10 °C

Q: For CC[C@H]1NC(=O)[C@@H]([C@H](O)[C@H](C)CCCc2nccn2C)N(C)C(=O)[C@@H](C(C)C)N(C)C(=O)[C@@H](CC(C)C)N(C)C(=O)[C@@H](CC(C)C)N(C)C(=O)[C@H](C)NC(=O)[C@@H](C)NC(=O)[C@@H](CC(C)C)N(C)C(=O)[C@@H](C(C)C)NC(=O)[C@H](CC(C)C)N(C)C(=O)[C@@H](C)N(C)C1=O [Compound 26, [(2S,3R,4R)-3-Hydroxy-7-(1-methyl-1H-imidazol-2-yl)-4-methyl-2-(methylamino)heptanoic acid]^1 [(R)-methyl-Sar]^3 cyclosporin A], which IC50 [1] is on record?
A: > 10 µM

Q: And the solubility at 18 h [2]?
A: > 100 µM

Q: And the Ki [3]?
A: 0.0122 µM

Q: With CC[C@H]1NC(=O)[C@@H]([C@H](O)[C@H](C)CCCc2cnn(C)c2)N(C)C(=O)[C@@H](C(C)C)N(C)C(=O)[C@@H](CC(C)C)N(C)C(=O)[C@@H](CC(C)C)N(C)C(=O)[C@H](C)NC(=O)[C@@H](C)NC(=O)[C@@H](CC(C)C)N(C)C(=O)[C@@H](C(C)C)NC(=O)[C@H](CC(C)C)N(C)C(=O)[C@@H](C)N(C)C1=O [Compound 27, [(2S,3R,4R)-3-Hydroxy-4-methyl-2-(methylamino)-7-(1-methylpyrazol-4-yl)-heptanoic acid]^1 [(R)-methyl-Sar]^3 cyclosporin A] as the compound, how does the IC50 [1] read?
A: 1.11 µM

Q: What about the solubility at 18 h [2] of the same compound?
A: > 100 µM

Q: And the Ki [3]?
A: 0.0068 µM

Q: What does the source list for CC[C@H]1NC(=O)[C@@H]([C@H](O)[C@H](C)CCCCc2ccccn2)N(C)C(=O)[C@@H](C(C)C)N(C)C(=O)[C@@H](CC(C)C)N(C)C(=O)[C@@H](CC(C)C)N(C)C(=O)[C@H](C)NC(=O)[C@@H](C)NC(=O)[C@@H](CC(C)C)N(C)C(=O)[C@@H](C(C)C)NC(=O)[C@H](CC(C)C)N(C)C(=O)[C@@H](C)N(C)C1=O [Compound 28, [(2S,3R,4R)-3-Hydroxy-4-methyl-2-(methylamino)-8-(pyridin-2-yl)-octanoic acid]^1 [(R)-methyl-Sar]^3 cyclosporin A]?
A: IC50 [1]: > 10 µM; solubility at 18 h [2]: 50 to 75 µM (≈ 64.8 to 97.2 µg/mL); Ki [3]: 0.0039 µM

Q: Which IC50 [1] does the source give for CC[C@H]1NC(=O)[C@@H]([C@H](O)[C@H](C)CCCc2ccccn2)N(C)C(=O)[C@@H](C(C)C)N(C)C(=O)[C@@H](CC(C)C)N(C)C(=O)[C@@H](CC(C)C)N(C)C(=O)[C@H](C)NC(=O)[C@@H](C)NC(=O)[C@@H](CC(C)C)N(C)C(=O)[C@@H](C(C)C)NC(=O)[C@H](CC(C)C)N(C)C(=O)CN(C)C1=O [Compound 29, [(2S,3R,4R)-3-Hydroxy-4-methyl-2-(methylamino)-7-(pyridine-2-yl)-heptanoic acid]^1 cyclosporin A] here?
A: 2.65 µM

Q: And the solubility at 18 h [2]?
A: 50 to 75 µM (≈ 63.4 to 95.1 µg/mL)

Q: And the Ki [3, 4]?
A: 0.011 µM

Q: With CC[C@H]1NC(=O)[C@@H]([C@H](O)[C@H](C)CCCc2ccncc2)N(C)C(=O)[C@@H](C(C)C)N(C)C(=O)[C@@H](CC(C)C)N(C)C(=O)[C@@H](CC(C)C)N(C)C(=O)[C@H](C)NC(=O)[C@@H](C)NC(=O)[C@@H](CC(C)C)N(C)C(=O)[C@@H](C(C)C)NC(=O)[C@H](CC(C)C)N(C)C(=O)CN(C)C1=O [Compound 30, [(2S,3R,4R)-3-Hydroxy-4-methyl-2-(methylamino)-7-(pyridin-4-yl)-heptanoic acid]^1 cyclosporin A] as the compound, how does the IC50 [1] read?
A: 3.15 µM

Q: What about the solubility at 18 h [2] of the same compound?
A: 50 to 75 µM (≈ 63.4 to 95.1 µg/mL)

Q: And the Ki [3]?
A: 0.014 µM

Q: Which results are given for CC[C@H]1NC(=O)[C@@H]([C@H](O)[C@H](C)CCCc2cccnc2)N(C)C(=O)[C@@H](C(C)C)N(C)C(=O)[C@@H](CC(C)C)N(C)C(=O)[C@@H](CC(C)C)N(C)C(=O)[C@H](C)NC(=O)[C@@H](C)NC(=O)[C@@H](CC(C)C)N(C)C(=O)[C@@H](C(C)C)NC(=O)[C@H](CC(C)C)N(C)C(=O)CN(C)C1=O [Compound 31, [(2S,3R,4R)-3-Hydroxy-4-methyl-2-(methylamino)-7-(pyridin-3-yl)-heptanoic acid]^1 cyclosporin A]?
A: IC50 [1]: 3.95 µM; solubility at 18 h [2]: 50 to 75 µM (≈ 63.4 to 95.1 µg/mL); Ki [3]: 0.0095 µM

Q: Which results are given for CC[C@H]1NC(=O)[C@@H]([C@H](O)[C@H](C)CCCc2ncccn2)N(C)C(=O)[C@@H](C(C)C)N(C)C(=O)[C@@H](CC(C)C)N(C)C(=O)[C@@H](CC(C)C)N(C)C(=O)[C@H](C)NC(=O)[C@@H](C)NC(=O)[C@@H](CC(C)C)N(C)C(=O)[C@@H](C(C)C)NC(=O)[C@H](CC(C)C)N(C)C(=O)CN(C)C1=O [Compound 32, [(2S,3R,4R)-3-Hydroxy-4-methyl-2-(methylamino)-7-(pyrimidin-2-yl)-heptanoic acid]^1 cyclosporin A]?
A: IC50 [1]: 3.45 µM; solubility at 18 h [2]: 75 to 100 µM (≈ 95.2 to 127 µg/mL); Ki [3, 4]: 0.0083 µM

Q: Which results are given for CC[C@H]1NC(=O)[C@@H]([C@H](O)[C@H](C)CCCc2ccncc2)N(C)C(=O)[C@@H](C(C)C)N(C)C(=O)[C@@H](CC(C)C)N(C)C(=O)[C@@H](CC(C)C)N(C)C(=O)[C@H](C)NC(=O)[C@@H](C)NC(=O)[C@@H](CC(C)C)N(C)C(=O)[C@@H](C(C)C)NC(=O)[C@H](CC(C)C)N(C)C(=O)[C@@H](COC)N(C)C1=O [Compound 33]?
A: IC50 [1]: 2.39 µM; solubility at 18 h [2]: 75 to 100 µM (≈ 98.4 to 131 µg/mL); Ki [3]: 0.0031 µM

Q: Which IC50 [1] does the source give for CC[C@H]1NC(=O)[C@@H]([C@H](O)[C@H](C)CCCc2ccccn2)N(C)C(=O)[C@@H](C(C)C)N(C)C(=O)[C@@H](CC(C)C)N(C)C(=O)[C@@H](CC(C)C)N(C)C(=O)[C@H](C)NC(=O)[C@@H](C)NC(=O)[C@@H](CC(C)C)N(C)C(=O)[C@@H](C(C)C)NC(=O)[C@H](CC(C)C)N(C)C(=O)[C@@H](CO)N(C)C1=O [Compound 34] here?
A: 4.65 µM

Q: And the solubility at 18 h [2]?
A: > 100 µM

Q: What about the Ki [3] of the same compound?
A: 0.0031 µM

Q: For CC[C@H]1NC(=O)[C@@H]([C@H](O)[C@H](C)CCCc2ccccn2)N(C)C(=O)[C@@H](C(C)C)N(C)C(=O)[C@@H](CC(C)C)N(C)C(=O)[C@@H](CC(C)C)N(C)C(=O)[C@H](C)NC(=O)[C@@H](C)NC(=O)[C@@H](CC(C)C)N(C)C(=O)[C@@H](C(C)C)NC(=O)[C@H](CC(C)C)N(C)C(=O)[C@@H](SC)N(C)C1=O [Compound 35], which IC50 [1] is on record?
A: 1.6 µM

Q: What about the solubility at 18 h [2] of the same compound?
A: 75 to 100 µM (≈ 98.5 to 131 µg/mL)

Q: What about the Ki [3, 4] of the same compound?
A: 0.0044 µM

Q: With CC[C@H]1NC(=O)[C@@H]([C@H](O)[C@H](C)CCOc2ncccn2)N(C)C(=O)[C@@H](C(C)C)N(C)C(=O)[C@@H](CC(C)C)N(C)C(=O)[C@@H](CC(C)C)N(C)C(=O)[C@H](C)NC(=O)[C@@H](C)NC(=O)[C@@H](CC(C)C)N(C)C(=O)[C@@H](C(C)C)NC(=O)[C@H](CC(C)C)N(C)C(=O)[C@@H](C)N(C)C1=O [Compound 36, [(2S,3R,4R)-3-Hydroxy-4-methyl-2-(methylamino)-6-(pyrimidin-2-yloxy)-hexanoic acid]^1 cyclosporin A] as the compound, how does the IC50 [1] read?
A: 1.26 µM

Q: What about the solubility at 18 h [2] of the same compound?
A: > 100 µM

Q: And the Ki [3]?
A: 0.0077 µM

Q: For CC[C@H]1NC(=O)[C@@H]([C@H](O)[C@H](C)CCOCc2ccncc2)N(C)C(=O)[C@@H](C(C)C)N(C)C(=O)[C@@H](CC(C)C)N(C)C(=O)[C@@H](CC(C)C)N(C)C(=O)[C@H](C)NC(=O)[C@@H](C)NC(=O)[C@@H](CC(C)C)N(C)C(=O)[C@@H](C(C)C)NC(=O)[C@H](CC(C)C)N(C)C(=O)[C@@H](C)N(C)C1=O [Compound 37, [(2S,3R,4R)-3-Hydroxy-4-methyl-2-(methylamino)-6-(pyridin-4-ylmethoxy)-hexanoic acid]^1 cyclosporin A], which IC50 [1] is on record?
A: 5.64 µM

Q: And the solubility at 18 h [2]?
A: > 100 µM

Q: What about the Ki [3] of the same compound?
A: 0.0056 µM
